Consider six molecules from patent US20120010196A1, “METHODS OF TREATING NEURODEGENERATIVE DISORDERS AND DISEASES” (priority 2010, published 2012).

Where a name gives a salt, the structure may show the parent alone.

The test system of data set [1] is cortical neurons cultured from wild-type mice. Briefly: Immunoblotting analysis of various proteins in cultured cortical neurons (U18666A-induced changes). It is filed as cell-based. To be noted: for RhoA level (immunoblot) / Ubiquitin level (immunoblot) / p-4EBP1 level (immunoblot) / p-LIMK level (immunoblot) / p-Mdm2 level (immunoblot) / p-p38 level (immunoblot) / p-p53Δ level (immunoblot) / t-p38 level (immunoblot) / t-p53 level (immunoblot): DIV4 cortical neurons from wild-type mice, 5 μM U18666A, inhibitor pre-treatment 1 μM, DMSO = 100, n = 3-6. How it is done: (§1) Neuronal cultures. Cortical and hippocampal neurons were prepared from npc1+/+ and npc1−/− embryos at embryonic day 18 (E18); time-pregnant wild-type BALB/c or npc1+/− mice were obtained either from Charles River Laboratories (San Diego, Calif.) or from our breeding colony respectively. Neurons were cultured in NeuroBasal (GIBCO, Carlsbad, Calif.) with 10% bovine serum albumin (BSA), 2% B27, and 1% glutamine for three to four days before being used.
(§2) Treatment. For primary cultured neurons, chemicals (U18666A and inhibitors of various enzymes) were first dissolved in 10% DMSO before being diluted in cultured medium; final DMSO concentration was lower than 0.01%. For in vivo treatment, hydroxyfasudil monohydrochloride (Sigma) was dissolved in double-distilled H2O and injected subcutaneously at 10 mg/kg, twice a day from postnatal day 7 to day 28.
Immunoprecipitation and immunoblotting procedures. For immunoprecipitation, cultured cortical neurons were lysed in lysis buffer [0.05 M Tris base, 0.9% NaCl, pH 7.6, and 0.5% Triton X-100 plus Protease Inhibitors Cocktail (1:100; EMD Biosciences) and phosphatase inhibitor cocktails (1:500; Sigma)]. Lysates were centrifuged at 16,000×g for 30 min at 4° C. Supernatant were then cleared with a mixture of protein A/Gagarose beads (each 50%) for 1 h at 4 uC, and after a brief spin, pellets were discarded. A small portion of the supernatants was used as input. The reminder of the supernatant was immunoprecipitated overnight with control IgG or Tau1 antibodies. Immunoprecipitates were captured by incubation with protein A/G-agarose beads for 3 h at 4° C. After several washes, the beads were resuspended in 2×SDS sample buffer [4% sodium dodecyl sulfate (SDS), 100 mM Tris-HCl (pH 6.8), 10% b-mercaptoethanol, 20% glycerol and 0.2% bromophenol blue] and boiled for 10 min. The resulting proteins were separated by SDS-PAGE, and transferred to polyvinylidene difluoride membranes for immunoblotting using previously described protocols.
Because the p-p53Δ and p-p53 bands were very close in immunoblots and the former was the predominant band, p-p53Δ levels were used as an index of p-p53 degradation. Immunoprecipitation was used to determine whether p-p53 truncation affected its association with the microtubule-associated protein tau, a protein that is abundantly and exclusively expressed in axons. p53 labeled by either anti-p-p53 or anti-p53 antibodies was immunoprecipitated by Tau1 antibodies (FIG. 5B).
Increased levels of p-p53Δ and p-Mdm2 were quantified using the ImageJ program (National Institutes of Health, Bethesda, Md.). The quantified levels are contained in Table 1 below.

Data set [2] relates to hippocampal neurons cultured from wild-type mice. Briefly: Quantification of growth cone collapse in cultured neurons from wild-type mice (U18666A-induced). The class given is cell-based. How it is done: as §1, §2
(§3) Immunofluorescent staining. Hippocampal neurons were fixed with 4% paraformaldehyde in phosphate buffer (PB; pH 7.4) for 15 min. After washing with 1× phosphate buffer saline (PBS), cells were permeabilized with 0.05% Triton X-100 in 1×PBS for 15 min, and incubated with blocking buffer (3% BSA, 0.02% Triton X-100 in 1×PBS) for 15 min before being probed with primary antibodies. The following primary antibodies were used: anti-E6AP (1:1000), anti-phospho-p53 (1:250), anti-phospho-4EBP1 (1:1000), antiphospho-Mdm2 antibody (1:250), anti-phospho-p38 antibody (1:250), anti-RhoA antibody (1:1500). All primary antibodies were diluted in blocking buffer and incubated at 4° C. for 18 h. After six washes (6×10 min) with 1×PBS at room temperature, cells were incubated with secondary antibodies, Alexa488-anti-rabbit (1:500) or Alexa594-anti-mouse (1:500); both antibodies were diluted in blocking buffer and incubated at room temperature for one h. Cells were then washed with 1×PBS (6×10 min) and sealed with mounting medium (Vectashield; Vector Laboratories, Inc., Burlingame, Calif.) containing 49,69-diamidino-2-phenylindole (DAPI) to stain nuclei. Immunofluorescent signal was detected with a Nikon confocal microscope (Nikon TE 2000U with DEclipse C1 system; Melville, N.Y.).
(§4) Quantification of growth cone morphology and immunoreactivity. Confocal images were taken using the 60× oil-immersion objective. About 20-30 images were randomly selected from each culture dish (20 mm in diameter); at least four to six dishes from three to six independent culture preparations/experiments were used for each experimental group. Within an experiment, cultures used for different experimental groups and designed for comparison were stained simultaneously and imaged with the same acquisition parameters. Quantification was done blindly by multiple researchers. Growth cones with less than 1 filopodium were considered collapsed; 100 growth cones were-quantified for each experimental group. Image J software was used to quantify immunoreactivity intensity of p-p53 and RhoA in axons and growth cones; the “total integrated density” was used instead of “average intensity”. Briefly, individual growth cones were outlined manually and the total integrated density was measured using Image J software. For quantification of immunoreactivity in axons, a 50 μm fragment of axons from the neck of growth cones towards the cell body was selected and integrated density measured.

Data set [3] deals with axons and growth cones of hippocampal neurons from wild-type mice. As to the kind of experiment: Immunofluorescence quantification of protein levels in axons and growth cones of wild-type hippocampal neurons. It is filed as cell-based. Here is the method: as §1, §2, §3, §4
The conditions of data set [4]: reference [26]; cited from earlier work.
In the next data set the test system is npc1−/− mice. As to the kind of experiment: In vivo ROCK inhibition in developing npc1−/− mice, immunohistochemistry of brain sections. Particulars: 10 mg/kg subcutaneously twice a day, postnatal day 7 to 28. How it is done: Animals. A breeding colony of Npc1″ heterozygous mice that were on a BALB/c background (Jackson Laboratory, Bar Harbor, Me.) was established in order breed wild type (npc+/+) and npc1−/− mice. The genotype of the mice was determined by employing a polymerase chain reaction (PCR)-based method as described in reference. The Institutional Animal Care and Use Committee (IACUC) of Western University of Health Sciences approved the care and experimental protocols that these examples describe. The National Institutes of Health Guide for the Care and Use of Laboratory Animals and Animal Husbandry governed the use of animals by the inventors.
as §2
Perfusion and Immunohistochemistry. Mice were perfused with freshly prepared 4% paraformaldehyde in 1×PBS. Brains were then removed and post-fixed in 4% paraformaldehyde for 16 h followed by incubation with graded sucrose solutions. Brains were sectioned into 30 μm coronal sections with a microtome. Floating sections were processed for immunostaining as described previously. Briefly, sections were incubated with rabbit anti-p-p53 (1:250) and mouse anti-pan axonal neurofilament (SMI-312, 1:500; Covance) antibodies in 5% horse serum diluted in 0.1M PB overnight at 4° C. […] Quantification of p-p53 and neurofilament immunoreactivity in fasciculated bundles in the striatum was performed by using NIH ImageJ software. […] Analyzed area consisted of 450 μm×420 μm that was taken from two sections per mouse; three different mice were used for each experimental group. Means of integrated density and areas were quantified and expressed as percentage of values from npc1+/+ mice.

[5] abbreviates: immunohistochemical analysis, mean±SEM, n=25-40, Mdm2 inhibitor 1 μM.
[6] abbreviates: wild-type cortical neurons treated with pifithrin-μ.
The mark [7] stands for this setting: 1 μM SB203580 pre-treatment, immunohistochemistry.

Consider `Bc1ccc(C(=O)/C=C/c2ccc(I)cc2)cc1` [Mdm2-In, trans-4-Iodo, 49-boranyl-chalcone], for which, in data set [1], the “RhoA level (immunoblot)” value is listed as 105 ± 1, the “Ubiquitin level (immunoblot)” value is on record as 102 ± 5, the “p-4EBP1 level (immunoblot)” value is listed as 104 ± 2 and the “p-LIMK level (immunoblot)” value came out at 117 ± 6. Moreover, in data set [1], the “p-Mdm2 level (immunoblot)” value was 100 ± 4, the “p-p38 level (immunoblot)” value is 108 ± 17, the “p-p53Δ level (immunoblot)” value is recorded as 106 ± 2 and the “t-p38 level (immunoblot)” value was determined as 104 ± 0. In addition, in data set [1], the “t-p53 level (immunoblot)” value is reported as 104 ± 1. In addition, in data set [2] (pretreatment with 1 μM Mdm2-in, n=100 growth cones), the “effect on U18666A-induced growth cone collapse” value is on record as “significantly reduced”. In data set [3] (Mdm2 inhibitor pre-treatment (1 μM), n=25-40 neurons), the “effect on U18666A-induced decrease in p-p53 levels in axons and growth cones” value is recorded as “significantly reduced”. For the same molecule, in data set [3] (setting [5]), the “RhoA levels in axons, percentage of control vehicle-treated neurons” value is 102±15% and the “RhoA levels in growth cones, percentage of control vehicle-treated neurons” value came out at 136±20%.

On to `Cc1cncc2cccc(S(=O)(=O)N3CCCNC[C@@H]3C)c12.Cl.Cl` [H 1152, (S)-(+)-2-Methyl-1-[(4-methyl-5-isoquinolinyl)sulfonyl]-hexahydro-1H-1,4-diazepine dihydrochloride], for which the “effect on U18666A-induced growth cone collapse” value in data set [2] (pre-treatment with 100 nM H 1152 for 3 h, then 5 μM U18666A for 2 min) was “blocked”. Also, the “effect on U18666A-induced decrease in p-p53 immunoreactivity” value in data set [3] (100 nM H 1152 for 3 h, then 5 μM U18666A 2 min) is given as “blocked”.

`CC[C@H]1CN2CCc3cc(OC)c(OC)cc3[C@@H]2C[C@@H]1C[C@H]1NCCc2cc(OC)c(OC)cc21` [emetine]: in data set [1] (emetine pretreatment), the “effect on U18666A-induced phosphorylation of LIMK” value is given as “significantly reduced”; the “effect on pifithrin-μ-induced increase in RhoA and p-LIMK” value was “blocked”. The “effect on U18666A-induced changes in levels of p-Mdm2, p-p38 and p-p53Δ” value in data set [1] (emetine treatment) is reported as “did not affect”. The “effect on U18666A-induced increase in RhoA levels” value in data set [1] (pre-treatment with emetine) was “significantly reduced”. Moreover, the “effect on U18666A-induced growth cone collapse” value in data set [2] (emetine pretreatment, FIG. 15C legend: cortical neurons, n=100 growth cones) is on record as “significantly reduced”.

As for `NS(=O)(=O)C#Cc1ccccc1` [pifithrin-μ], in data set [1] (setting [6]), the “levels of RhoA and p-LIMK (immunoblot)” value is listed as “rapid increase”; the “levels of p-4EBP1” value is “increased”.

Consider `O=c1[nH]ccc2c(S(=O)(=O)N3CCCNCC3)cccc12` [hydroxyfasudil monohydrochloride], for which, in data set [4], the blood-brain-barrier crossing entry is “cross the blood-brain-barrier” and the ischemia-induced brain damage entry is “reduce ischemia-induced brain damage”. In the data set on npc1−/− mice, the SMI-312-immunopositive areas result is “significantly increased”; the “number of axonal neurofilaments (SMI-312 staining), especially corpus callosum and striatum” value is “increased”; the “p-p53 immunoreactivity in brain sections” value is “increased”.

For the molecule `C[S+]([O-])c1ccc(-c2nc(-c3ccncc3)c(-c3ccc(F)cc3)[nH]2)cc1` (stereo not drawn) [SB203580], in data set [1], the “RhoA level (immunoblot)” value is on record as 96 ± 0, the “Ubiquitin level (immunoblot)” value is on record as 95 ± 7, the “p-4EBP1 level (immunoblot)” value worked out at 99 ± 3 and the “p-LIMK level (immunoblot)” value was determined as 100 ± 3. Moreover, in data set [1], the “p-Mdm2 level (immunoblot)” value is 92 ± 1, the “p-p38 level (immunoblot)” value worked out at 96 ± 24, the “p-p53Δ level (immunoblot)” value came out at 94 ± 6 and the “t-p38 level (immunoblot)” value was 99 ± 5. Besides, the “t-p53 level (immunoblot)” value in data set [1] was found to be 107 ± 2. In addition, the “effect on U18666A-induced growth cone collapse” value in data set [2] (preincubation with 1 μM SB203580 for 2 h before U18666A) is recorded as “significantly reduced”. Moreover, in data set [3] (setting [7]), the “effect on U18666A-induced RhoA increase in axons and growth cones” value is listed as “blocking effects”; the “effect on U18666A-induced p-p53 truncation in axons and growth cones” value was “blocking effects”.
